{"source": "patent US20240270855A1", "about": "“NEURO-MESENCHYME UNITS CONTROL ILC2 AND OBESITY VIA A BRAIN-ADIPOSE CIRCUIT” (Fundação D. Anna de Sommer Champalimaud e Dr. Carlos Montez …, priority 2021, published 2024)", "key": {"[1]": {"tested_on": "DREADD-carrying neurons", "test": "Chemogenetic modulation of GAT neurons (AAV DREADD injected in GAT, then CNO)", "format": "in vivo, mice", "conditions": "for interleukin-33 (Il33) expression: vs contralateral control"}, "[2]": {"tested_on": "purified GAT PDGFRA+MSCs", "test": "In vitro MSC activation with clenbuterol, MSC-derived GDNF", "format": "cell-based, mice", "conditions": "10 μg/ml clenbuterol, 16 hours", "description": "In vitro and in vivo MSC activation: For in vitro experiments, purified GAT PDGFRA+MSCs were cultured in complete DMEM (supplemented with 10% FBS, 1% HEPES, sodium pyruvate, glutamine, streptomycin and penicillin (Corning)) at 37° C. After 2 hours of rest in complete DMEM without FBS, MSCs were stimulated for 16 hours with 10 μg/ml clenbuterol. For RNA analysis, MSCs were lysed using RLT buffer (Qiagen). For GDNF protein analysis, MSCs were incubated with brefeldin A (eBioscience) during clenbuterol stimulation prior to intracellular staining."}, "[3]": {"tested_on": "GAT", "test": "Quantitative RT-PCR gene expression in GAT and GAT cell populations after 6-OHDA or clenbuterol", "format": "in vivo, mice", "conditions": "for expression of IL-33: GAT and PDGFRA+MSCs of treated mice; for Gdnf expression in other mesenchymal counterparts, adipocytes and endothelial cells: GAT cell populations; for expression of IL-25: PDGFRA+MSCs of treated mice; for Gdnf expression in PDGFRA+MSC: sorted GAT cell population; for Gdnf expression in the GAT: total GAT RNA"}, "[4]": {"biological_target": "T1, beta-2 adrenergic receptor (ADRB2) (Mus musculus, UniProt P18762)", "T1 construct": "endogenous in cells; host or cells: C57BL/6J mice in vivo", "T1 sequence (P18762 whole entry)": "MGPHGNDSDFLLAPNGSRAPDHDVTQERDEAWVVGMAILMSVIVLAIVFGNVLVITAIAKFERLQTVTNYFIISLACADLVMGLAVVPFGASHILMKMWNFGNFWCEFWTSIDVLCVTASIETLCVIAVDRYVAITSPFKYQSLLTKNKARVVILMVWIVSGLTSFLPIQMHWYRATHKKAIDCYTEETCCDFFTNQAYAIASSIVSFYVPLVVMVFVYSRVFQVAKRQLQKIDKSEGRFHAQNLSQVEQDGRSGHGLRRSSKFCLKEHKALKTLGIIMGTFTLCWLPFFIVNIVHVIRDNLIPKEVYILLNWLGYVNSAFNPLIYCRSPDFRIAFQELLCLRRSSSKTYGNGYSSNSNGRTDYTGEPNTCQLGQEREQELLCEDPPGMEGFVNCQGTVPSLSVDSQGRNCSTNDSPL", "test": "Systemic activation of ADRB2 with clenbuterol, GAT ILC2 cytokines", "format": "in vivo, mice", "conditions": "clenbuterol in drinking water, 10 mg/kg/day, 8 days"}, "[5]": {"biological_target": "RET (Homo sapiens, UniProt P07949)", "sequence (P07949 29-1114)": "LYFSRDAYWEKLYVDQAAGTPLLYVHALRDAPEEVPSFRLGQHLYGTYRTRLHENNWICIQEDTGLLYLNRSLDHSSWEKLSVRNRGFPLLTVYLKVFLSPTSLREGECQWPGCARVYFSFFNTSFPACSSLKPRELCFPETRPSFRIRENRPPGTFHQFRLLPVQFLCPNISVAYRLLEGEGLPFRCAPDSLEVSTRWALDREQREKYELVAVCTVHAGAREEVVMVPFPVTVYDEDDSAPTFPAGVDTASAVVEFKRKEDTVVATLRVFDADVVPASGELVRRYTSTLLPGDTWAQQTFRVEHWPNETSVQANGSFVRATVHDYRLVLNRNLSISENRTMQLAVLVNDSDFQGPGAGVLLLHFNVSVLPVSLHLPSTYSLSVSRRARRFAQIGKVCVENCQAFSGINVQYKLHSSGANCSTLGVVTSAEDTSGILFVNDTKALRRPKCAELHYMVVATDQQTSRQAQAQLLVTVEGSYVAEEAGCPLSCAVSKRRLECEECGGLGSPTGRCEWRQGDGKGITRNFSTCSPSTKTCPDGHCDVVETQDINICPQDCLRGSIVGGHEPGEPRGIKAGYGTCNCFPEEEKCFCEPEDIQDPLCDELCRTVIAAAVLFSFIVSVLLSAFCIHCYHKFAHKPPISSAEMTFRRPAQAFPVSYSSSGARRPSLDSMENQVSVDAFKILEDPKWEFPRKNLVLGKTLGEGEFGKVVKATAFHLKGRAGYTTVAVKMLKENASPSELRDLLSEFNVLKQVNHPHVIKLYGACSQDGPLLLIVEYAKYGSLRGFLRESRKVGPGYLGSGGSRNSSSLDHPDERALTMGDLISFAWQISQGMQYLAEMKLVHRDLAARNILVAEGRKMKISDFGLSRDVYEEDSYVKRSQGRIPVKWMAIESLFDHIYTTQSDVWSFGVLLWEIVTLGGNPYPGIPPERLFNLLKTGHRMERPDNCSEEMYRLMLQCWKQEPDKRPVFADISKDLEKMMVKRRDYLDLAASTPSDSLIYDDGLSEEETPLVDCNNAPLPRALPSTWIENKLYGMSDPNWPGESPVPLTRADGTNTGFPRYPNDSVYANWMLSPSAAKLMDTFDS", "conditions": "Akeno-Stuart et al., Cancer Res. 2007; cited from earlier work"}, "[6]": {"tested_on": "dopaminergic and noradrenergic neurons", "test": "Chemical sympathetic ablation with 6-OHDA, GAT ILC2 cytokines by flow cytometry", "format": "in vivo, mice"}, "[7]": {"tested_on": "PDGFRA positive MSC", "test": "RNA sequencing of PDGFRA positive MSC from 6-OHDA-treated mice", "format": "in vivo", "conditions": "RNAseq, 6-OHDA vs vehicle"}, "[8]": {"tested_on": "RET", "conditions": "Tokugawa et al., Neurochem Int. 2003; cited from earlier work"}, "[9]": {"tested_on": "GAT explant/ILC2 co-cultures", "test": "GAT explant/ILC2 co-culture with GDNF, Ucp1 expression", "format": "cell-based, mice", "conditions": "50 ng/mL, 16 hours, Ret^WT vs Ret^Δ ILC2; RET dependent", "description": "Quantitative RT-PCR: Total RNA from sorted or cultured cells was extracted using RNeasy micro kit or RNeasy mini kit (Qiagen) according to the manufacturer's protocol. When indicated, total adipose tissue or adipocyte fraction was collected to Trizol (Invitrogen) followed by chloroform and isopropanol RNA extraction, according to the manufacturer's protocol. RNA concentration was determined using Nanodrop Spectrophotometer (Nanodrop Technologies). Quantitative real-time PCR was performed in StepOne and QuantStudio 5 real-time PCR systems (Applied Biosystems) with Hprt and Gapdh as housekeeping genes. Briefly, High Capacity RNA-to-cDNA Kit (Applied Biosystems) were used to retro-transcribe RNA, followed by a pre-amplification PCR using TaqMan PreAmp Master Mix (Applied Biosystems). TaqMan Gene Expression Master Mix (Applied Biosystems) was used in the real-time PCR. TaqMan Gene Expression Assays (Applied Biosystems) were the following: Hprt Mm00446968_m1; Gapdh Mm99999915_g1; […] Mm00439646_m1; […] Mm00434204_m1; Areg Mm01354339_m1; Penk Mm01212875_m1; Ret Mm00436304_m1; Gdnf Mm00599849_m1; Ucp1 Mm01244861_m1; Adrb2 Mm02524224_s1; Il25 Mm00499822_m1; and Il33 Mm00505403_m1. Analysis was performed using the comparative CT method (2^−ΔCT). When comparison or fold change between samples was required, the comparative ΔCT method (2^−ΔΔCT) was applied. […]"}, "[10]": {"conditions": "AAV(3D) (activator DREADD), vs sham contralateral control"}, "[11]": {"conditions": "AAV(4D) (inhibitor DREADD), vs sham contralateral control"}, "[12]": {"conditions": "GAT, 6-OHDA 200 mg/kg intraperitoneally 3 days and 1 day before analysis, vs vehicle"}}, "data": [{"molecule": "C[N+]1([O-])CCN(C2=Nc3cc(Cl)ccc3Nc3ccccc32)CC1", "note": "[CNO, Clozapine-N-oxide]", "values": [{"measurement": "GDNF expression in GAT", "setting": "[1]; [10]", "value": "increased"}, {"measurement": "ILC2 function", "setting": "[1]; [10]", "value": "increased"}, {"measurement": "interleukin-33 (Il33) expression", "setting": "[1]; AAV(3D)", "value": "did not affect"}, {"measurement": "GDNF expression in GAT", "setting": "[1]; [11]", "value": "reduced"}, {"measurement": "innate type 2 cytokines", "setting": "[1]; [11]", "value": "reduced"}, {"measurement": "interleukin-33 (Il33) expression", "setting": "[1]; AAV(4D)", "value": "did not affect"}]}, {"molecule": "CC(C)(C)NCC(O)c1cc(Cl)c(N)c(Cl)c1", "note": "(centres unmarked) [clenbuterol]", "values": [{"measurement": "MSC-derived GDNF", "setting": "[2]", "value": "increased"}, {"measurement": "expression of IL-33", "setting": "[3]", "value": "unperturbed"}, {"measurement": "Gdnf expression in other mesenchymal counterparts, adipocytes and endothelial cells", "setting": "[3]", "value": "unperturbed"}, {"measurement": "expression of IL-25", "setting": "[3]", "value": "unperturbed"}, {"measurement": "Gdnf expression in PDGFRA+MSC", "setting": "[3]", "value": "modulated"}, {"measurement": "Gdnf expression in the GAT", "setting": "[3]", "value": "modulated"}, {"measurement": "ILC2-derived cytokines in the GAT", "setting": "[4]", "value": "increased"}]}, {"molecule": "CCN1CCN(Cc2ccc(NC(=O)Nc3ccc(Oc4cc(NC)ncn4)cc3)cc2C(F)(F)F)CC1", "note": "[AST 487, 1-[4-[(4-ethylpiperazin-1-yl)methyl]-3-(trifluoromethyl)phenyl]-3-[4-[6-(methylamino)pyrimidin-4-yl]oxyphenyl]urea]", "values": [{"measurement": "RET autophosphorylation and activation of downstream effectors", "setting": "[5]", "value": "inhibit RET autophosphorylation"}]}, {"molecule": "NCCc1cc(O)c(O)cc1O", "note": "[6-OHDA, 6-hydroxydopamine]", "values": [{"measurement": "ILC2 cytokine production", "setting": "[6]; Adrb2^ΔIl7ra mice", "value": "still impaired"}, {"measurement": "ILC2-derived IL-13", "setting": "[6]; [12]", "value": "pronounced reduction"}, {"measurement": "ILC2-derived Met-Enk", "setting": "[6]; [12]", "value": "pronounced reduction"}, {"measurement": "ILC2-derived interleukin (IL-) 5", "setting": "[6]; [12]", "value": "pronounced reduction"}, {"measurement": "ILC2 cytokine production", "setting": "[6]; Ret^ΔIl5 mice", "value": "unperturbed"}, {"measurement": "percentage of CD4 T cells", "setting": "[6]; after 6-OHDA administration", "value": "no change"}, {"measurement": "expression of IL-33", "setting": "[3]", "value": "unperturbed"}, {"measurement": "Gdnf expression in other mesenchymal counterparts, adipocytes and endothelial cells", "setting": "[3]", "value": "unperturbed"}, {"measurement": "expression of IL-25", "setting": "[3]", "value": "unperturbed"}, {"measurement": "Gdnf expression in PDGFRA+MSC", "setting": "[3]", "value": "modulated"}, {"measurement": "Gdnf expression in the GAT", "setting": "[3]", "value": "modulated"}, {"measurement": "GDNF expression by PDGFRA positive MSC", "setting": "[7]", "value": "significantly reduced"}]}, {"molecule": "CCN(CC)CCCC(C)Nc1cc(/C=C/c2ccccc2Cl)nc2cc(Cl)ccc12", "note": "(centres unmarked) [XIB4035, N(4)-(7-chloro-2-[(E)-2-(2-chloro-phenyl)-vinyl]-quinolin-4-yl)-N(1),N(1)-diethyl-pentane-1,4-diamine]", "values": [{"measurement": "RET autophosphorylation", "setting": "[8]", "value": "induced RET autophosphorylation"}]}, {"molecule": "GDNF: glial cell-derived neurotrophic factor, a GFRα ligand that activates RET (protein, UniProt P39905 78-211, looked up) Glial cell line-derived …: SPDKQMAVLPRRERNRQAAAANPENSRGKGRRGQRGKNRGCVLTAIHLNVTDLGLGYETKEELIFRYCSGSCDAAETTYDKILKNLSRNRRLVSDKVGQACCRPIAFDDDLSFLDDNLVYHILRKHSAKRCGCI", "values": [{"measurement": "RET autophosphorylation", "setting": "[8]", "value": "induced RET autophosphorylation"}, {"measurement": "Ucp1 expression", "setting": "[9]", "value": "efficiently induced"}]}]}
